Experiment [1] has as its system H. pylori binding to an erythrocyte receptor. As to conditions: cited from earlier work; for hemagglutination inhibition (in words): vs NeuAc(2→6)-lactose / NeuAc(2→3)-lactose.
Experiment [2] has as its system H. pylori binding to HuTu-80 cell monolayer. The experiment in a line: H. pylori binding inhibition to HuTu-80 cell monolayers (microtiter, urease readout). Format: cell-based, human (HuTu-80); H. pylori. The following applies: for IC50: Homo sapiens, HuTu80; for activity in inhibiting binding of H. pylori cells, in vitro: in words. The protocol:
The cultures were maintained in Basal medium Eagle containing 10% fetal calf serum in T-75 flasks, at 37° C. and a 5% CO2 atmosphere. Cells were harvested by trypsin/EDTA release and plated on 96-well flat bottom microtiter plates. The microtiter plates were incubated for 2-3 days until the monolayers grew to confluence. Prior to binding inhibition tests, the monolayer was washed with Hanks Balanced Salt solution (HBSS) containing Ca^+2 and Mg^+2, 0.1% BSA, 50 mM HEPES, 0.01 phenol red or HBHPR.
H. pylori bacteria isolates were obtained from B. Marshall (from the University of Virginia) and grown on sheep blood agar, collected at 48 h, washed and suspended in a binding buffer of HBSS+0.1% bovine serum albumin+50 mM HEPES buffer+0.01% phenol red or HBHPR.
The same concentration of bacteria and test compound were combined for 10 minutes, then transferred onto the monolayer. Binding was allowed to occur for 20 min at room temperature under mild agitation. The unbound bacteria was washed away with 1 wash of HBHPR, then 2 washes of the same buffer without HEPES buffer (HBPR).
The presence of bound bacteria is indicated by the presence of bacterial urease which generates NH3, which raises the pH and changes the color to purple, near at OD595.
IC50 in mg/ml was determined for each compound tested. The test data is reported below in Table 1:
IC50 S were determined using the HuTu-80 cell line monolayers.

For experiment [3], the system named is Helicobacter pylori. As to the kind of experiment: Effectiveness at inhibiting Helicobacter pylori when treating mammals, compared with fetuin. More on the design: species or system mammals; H. pylori. As to conditions: vs fetuin.
Experiment [4] concerns H. pylori. As to the kind of experiment: In vivo animal test: H. pylori colonization in gnotobiotic piglets. Set-up: bacterial colonies, colony forming units/gram of gastric epithelium, Experiment A / bacterial colonies, colony forming units/gram of gastric epithelium, Experiment B / bacterial colonies, colony forming units/gram of gastric epithelium, mean ± SD: scale not given here. On the procedure: Gnotobiotic derived piglets (delivered by cesarean section and housed in a germ-free environment) were orally treated with 100 mg of 3'sialyl lactose in 5.0 ml of water.
Six day old gnotobiotic piglets were orally treated with seven doses of 100 mg each of 3' sialyl lactose, at about 8 hour intervals. As a control, the piglets were administered water. The third administration of 3' sialyl lactose and control was accompanied with 2×10^9 live H. pylori. Two piglets were administered 3'sialyl lactose and 2 piglets were administered the control.
Twenty one day old gnotobiotic piglets were orally treated with seven doses of 100 mg each of 3' sialyl lactose, at about 8 hour intervals. As a control, the piglets were administered water. The third administration of 3' sialyl lactose and control was accompanied with 4×10^9 live H. pylori. Four piglets were administered 3'sialyl lactose and 2 piglets were administered the control.
The piglets were evaluated by determining bacterial colonies in blood-agar as colony forming units/gram of gastric epithelium (CFU/g). Gastric epithelium homogenates were plated on agar in serial 1:10 dilutions and bacterial colonies were counted on the plates, with 20-200 colonies/plate after 5 days.

Experiment [5] deals with H. pylori. As to conditions: in words; cited from earlier work.
For experiment [6] the following is noted: in words; cited from earlier work.
Experiment [7] has as its system H. pylori. The following applies: material treated with neuraminidase; cited from earlier work.
In experiment [8] the test system is Y-1 mouse adrenal cells. The following applies: in words; cited from earlier work.
Experiment [9] relates to Helicobacter pylori. As to conditions: in words; cited from earlier work.

Several values for one entry are separate records, joined by “and”; a condition that tells them apart may be missing. Equal entries are not always repeated. Entries after “also recorded” stand apart in the source; their conditions may differ.

What is called IC50 is the concentration that inhibits the measured activity by half. As for `CC(=O)N[C@H]1[C@H]([C@H](O)[C@H](O)CO)O[C@@](O[C@H]2[C@@H](O)[C@@H](CO)O[C@@H](O[C@H]3[C@H](O)[C@@H](O)C(O)O[C@@H]3CO)[C@@H]2O)(C(=O)O)C[C@@H]1O` (stereo partly drawn) [3' sialyl lactose, N-acetylneuraminyl-α(2→3)-Gal β1→4 Glc], in experiment [1], the “hemagglutination inhibition (in words)” value is “preferentially inhibited”. For the same molecule, in experiment [2], the IC50 was 6 mM and the “activity in inhibiting binding of H. pylori cells, in vitro” value is reported as “surprisingly strongly inhibits H. pylori”. In experiment [3], the “times more effective at inhibiting Helicobacter pylori than fetuin” value is reported as “more than 6.41 times”. Moreover, the “bacterial colonies, colony forming units/gram of gastric epithelium, mean ± SD” value in experiment [4] (Experiments A and B together) is on record as 6.9 ± 5.9 CFU/g. The “H. pylori binding inhibition in mammals” value in experiment [4] (in words, validated through in vivo mammalian test data) is recorded as “surprisingly effective inhibitor”. Further, the “bacterial colonies, colony forming units/gram of gastric epithelium, Experiment A” value in [4] (six day old piglets, oral, seven doses of 100 mg, 8 hour intervals, 2×10^9 live H. pylori, individual animals) was 5.44 CFU/g and 0 CFU/g. For the same molecule, the “bacterial colonies, colony forming units/gram of gastric epithelium, Experiment B” value in [4] (twenty one day old piglets, oral, seven doses of 100 mg, 8 hour intervals, 4×10^9 live H. pylori, individual animals) was 4.46 CFU/g and 25.5 CFU/g and 3.71 CFU/g and 2.48 CFU/g.

`CC(=O)N[C@H]1[C@H]([C@H](O)[C@H](O)CO)O[C@@](OC[C@H]2O[C@@H](O[C@H]3[C@H](O)[C@@H](O)C(O)O[C@@H]3CO)[C@H](O)[C@@H](O)[C@H]2O)(C(=O)O)C[C@@H]1O` (stereo partly drawn) [6' sialyl lactose, N-acetylneuraminyl-α(2→6)-Gal β1→4 Glc, reference compound] returned a half-maximal inhibitory concentration (IC50) in experiment [2] greater than 10 mM.

Regarding `OC[C@H]1O[C@@H](O[C@H]2[C@H](O)[C@@H](O)C(O)O[C@@H]2CO)[C@H](O)[C@@H](O)[C@H]1O` (stereo partly drawn) [lactose, reference compound], the IC50 in [2] was greater than 10 mM.

“#3: fraction # 3 corresponds with pure fetuin”: the “IC50, Expt C” value in [2] (HuTu-80, fetuin fraction, Expt C) came out at 1300 µg/mL.

On to “Colloidal bismuth subcitrate [Colloidal bismuth subcitrate (CBS)]”, for which, in experiment [5], the “eradication of H. pylori” value is given as “ability to eradicate H. pylori” and the “relapse rates after cessation of therapy” value is recorded as “lower relapse rates”. For the same molecule, the “effectiveness as a histamine H2 antagonist” value in experiment [6] is “effective as a histamine H2 antagonist”.

As for “N-acetylneuraminyllactose [reference compound]”, the “decrease in MFI upon neuraminidase treatment” value (“decrease” for short) in experiment [7] was 16.8%.

As to asialofetuin: asialofetuin, the “decrease” value in experiment [7] was 8.6%.

As for “fetuin: Sialoprotein which contains the NeuAc(2→3)Gal isomer of NeuAc-lactose”, the “adherence to Y-1 cells” value in [8] was “blocked”. Also, in experiment [1] (hemagglutination inhibition), the “concentration needed to produce 100% HAI” value is 0.500 mg/mL, the “times as effective as bovine NeuAc-lactose” value was 0.156 times and the “times as effective as α2-Macroglobulin” value is “about 2 times”. In addition, in experiment [1], the “hemagglutination inhibition (in words)” value is listed as “also inhibited H. pylori binding, but at higher concentrations”. The “decrease” value in experiment [7] was 29.8%. Besides, the “activity in inhibiting binding of H. pylori cells, in vitro” value in experiment [2] is given as “minimal activity”.

As to gangliotetraosylceramide, in experiment [9], the “recognition by H. pylori” value is “specifically recognizes”.

Regarding gangliotriaosylceramide, in experiment [9], the “recognition by H. pylori” value is reported as “specifically recognizes”.

Regarding phosphatidylethanolamine, the “recognition by H. pylori” value in experiment [9] is recorded as “receptor; also recorded: specifically recognizes”.

Regarding “α2 -Macroglobulin: Sialoprotein which contains the NeuAc(2→3)Gal isomer of NeuAc-lactose”, in experiment [1] (hemagglutination inhibition), the “concentration needed to produce 100% HAI” value was 1.000 mg/mL. Further, the “hemagglutination inhibition (in words)” value in [1] is “also inhibited H. pylori binding, but at higher concentrations”.

B1: Glycophorin A: Sialoprotein which contains the NeuAc(2→3)Gal isomer of NeuAc-lactose (protein, UniProt P02724 20-150, looked up)
Glycophorin-A: LSTTEVAMHTSTSSSVTKSYISSQTNDTHKRDTYAATPRAHEVSEISVRTVYPPEEETGERVQLAHHFSEPEITLIIFGVMAGVIGTILLISYGIRRLIKKSPSDVKPLPSPDTDVPLSSVEIENPETSDQ
Consider B1, for which the “concentration needed to produce 100% HAI” value in [1] (hemagglutination inhibition) was 0.250 mg/mL. Further, the “hemagglutination inhibition (in words)” value in experiment [1] is reported as “also inhibited H. pylori binding, but at higher concentrations”.

These data come from patent publication US5883079A, “Method for inhibiting H. pylori infection in mammalian tissue” (Neose Technologies, Inc., priority 1998, dated 1999).
